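Step 1: Grow cells in 96-well plates. Step 2: Expose to compound for 48 hours at 5 concentrations. Step 3: Interpolate endpoints linearly; if unreached, use highest concentration. The concentration for full growth arrest is given as TGI.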
Tests used:
Assay in all cases: DTP human tumour cell line panel, 48 h
[1] = tested on: 786-0 renal
[2] = tested on: A498 renal
[3] = tested on: A549 NSCLC
[4] = tested on: ACHN renal
[5] = tested on: BT-549 breast
[6] = tested on: CCRF-CEM leukemia
[7] = tested on: COLO 205 colon
[8] = tested on: DU-145 prostate
[9] = tested on: EKVX NSCLC
[10] = tested on: HCC-2998 colon
[11] = tested on: HCT-116 colon
[12] = tested on: HCT-15 colon
[13] = tested on: HL-60(TB) leukemia
[14] = tested on: HOP-62 NSCLC
[15] = tested on: HOP-92 NSCLC
[16] = tested on: HS 578T breast
[17] = tested on: HT29 colon
[18] = tested on: IGROV1 ovarian
[19] = tested on: K-562 leukemia
[20] = tested on: KM12 colon
[21] = tested on: M14 melanoma
[22] = tested on: MALME-3M melanoma
[23] = tested on: MCF7 breast
[24] = tested on: MDA-MB-435
[25] = tested on: MDA-N
[26] = tested on: MOLT-4 leukemia
[27] = tested on: NCI-H226 lung
[28] = tested on: NCI-H23 lung
[29] = tested on: NCI-H460 lung
[30] = tested on: NCI-H522 lung
[31] = tested on: NCI/ADR-RES ovarian
[32] = tested on: OVCAR-3 ovarian
[33] = tested on: OVCAR-4 ovarian
[34] = tested on: OVCAR-5 ovarian
[35] = tested on: OVCAR-8 ovarian
[36] = tested on: PC-3 prostate
[37] = tested on: RPMI-8226 leukemia
[38] = tested on: RXF 393 renal
[39] = tested on: SF-268 CNS
[40] = tested on: SF-295 CNS
[41] = tested on: SF-539 CNS
[42] = tested on: SK-MEL-2 melanoma
[43] = tested on: SK-MEL-28 melanoma
[44] = tested on: SK-MEL-5 melanoma
[45] = tested on: SK-OV-3 ovarian
[46] = tested on: SN12C renal
[47] = tested on: SNB-19 CNS
[48] = tested on: SNB-75 CNS
[49] = tested on: SW-620 colon
[50] = tested on: T-47D breast
[51] = tested on: TK-10 renal
[52] = tested on: U251 CNS
[53] = tested on: UACC-257 melanoma
[54] = tested on: UACC-62 melanoma
[55] = tested on: UO-31 renal
[56] = tested on: CAKI-1 renal
[57] = tested on: MDA-MB-231 breast
[58] = tested on: SR leukemia

## C[N+](C)(C)c1ncnc2c1ncn2C1CCCO1 (stereo not given)
[1]
  TGI: > 100 µM
[2]
  TGI: > 100 µM
[3]
  TGI: > 100 µM
[4]
  TGI: > 100 µM
[5]
  TGI: > 100 µM
[6]
  TGI: > 100 µM
[7]
  TGI: > 100 µM
[8]
  TGI: > 100 µM
[9]
  TGI: > 100 µM
[10]
  TGI: > 100 µM
[11]
  TGI: > 100 µM
[12]
  TGI: > 100 µM
[13]
  TGI: > 100 µM
[14]
  TGI: > 100 µM
[15]
  TGI: > 100 µM
[16]
  TGI: > 100 µM
[17]
  TGI: > 100 µM
[18]
  TGI: > 100 µM
[19]
  TGI: > 100 µM
[20]
  TGI: > 100 µM
[21]
  TGI: > 100 µM
[22]
  TGI: > 100 µM
[23]
  TGI: > 100 µM
[24]
  TGI: > 100 µM
[25]
  TGI: > 100 µM
[26]
  TGI: > 100 µM
[27]
  TGI: > 100 µM
[28]
  TGI: > 100 µM
[29]
  TGI: > 100 µM
[30]
  TGI: > 100 µM
[31]
  TGI: > 100 µM
[32]
  TGI: > 100 µM
[33]
  TGI: > 100 µM
[34]
  TGI: > 100 µM
[35]
  TGI: > 100 µM
[36]
  TGI: > 100 µM
[37]
  TGI: > 100 µM
[38]
  TGI: > 100 µM
[39]
  TGI: > 100 µM
[40]
  TGI: > 100 µM
[41]
  TGI: > 100 µM
[42]
  TGI: > 100 µM
[43]
  TGI: > 100 µM
[44]
  TGI: > 100 µM
[45]
  TGI: > 100 µM
[46]
  TGI: > 100 µM
[47]
  TGI: > 100 µM
[48]
  TGI: > 100 µM
[49]
  TGI: > 100 µM
[50]
  TGI: > 100 µM
[51]
  TGI: > 100 µM
[52]
  TGI: > 100 µM
[53]
  TGI: > 100 µM
[54]
  TGI: > 100 µM
[55]
  TGI: > 100 µM

## O=c1[nH]c(Nc2nc3ccccc3[nH]2)nc(O)c1Cc1ccccc1
[1]
  TGI: > 100 µM
[2]
  TGI: > 100 µM
[3]
  TGI: > 100 µM
[4]
  TGI: > 100 µM
[5]
  TGI: > 100 µM
[56]
  TGI: > 100 µM
[6]
  TGI: > 100 µM
[7]
  TGI: > 100 µM
[8]
  TGI: > 100 µM
[9]
  TGI: > 100 µM
[11]
  TGI: > 100 µM
[12]
  TGI: > 100 µM
[13]
  TGI: > 100 µM
[15]
  TGI: 63 µM
[16]
  TGI: > 100 µM
[17]
  TGI: > 100 µM
[18]
  TGI: > 100 µM
[19]
  TGI: > 100 µM
[20]
  TGI: > 100 µM
[21]
  TGI: > 100 µM
[22]
  TGI: > 100 µM
[57]
  TGI: > 100 µM
[24]
  TGI: > 100 µM
[25]
  TGI: > 100 µM
[26]
  TGI: > 100 µM
[27]
  TGI: > 100 µM
[28]
  TGI: > 100 µM
[29]
  TGI: > 100 µM
[30]
  TGI: > 100 µM
[31]
  TGI: > 100 µM
[33]
  TGI: > 100 µM
[35]
  TGI: > 100 µM
[36]
  TGI: > 100 µM
[37]
  TGI: > 100 µM
[39]
  TGI: > 100 µM
[41]
  TGI: > 100 µM
[42]
  TGI: > 100 µM
[43]
  TGI: > 100 µM
[44]
  TGI: > 100 µM
[46]
  TGI: > 100 µM
[47]
  TGI: > 100 µM
[48]
  TGI: 86.4 µM
[58]
  TGI: > 100 µM
[49]
  TGI: > 100 µM
[50]
  TGI: > 100 µM
[51]
  TGI: > 100 µM
[52]
  TGI: > 100 µM
[53]
  TGI: > 100 µM
[54]
  TGI: > 100 µM
[55]
  TGI: > 100 µM

Source: PubChem BioAssay (NCI)
